Measured values reported in patent US20040039052A1, “Urinary incontinence therapy” (priority 1997, published 2004).
Marks after values point to notes of the source that are not given here.

Assays:
[1] = system: patients with MS (detrusor hyperreflexia); test: separate study: RTX instillation in patients with MS; assay type: in vivo, human
Description: A separate study was undertaken with administration of 0.1 μM RTX to a group of 6 patients with MS. […] One patient was bedridden with an indwelling catheter. Despite the catheter, occasional bursts of detrusor hyperreflexia caused explosive expulsions of urine such that urine leaked around the catheter. No urinary dynamic measurements were taken but 100 ml of 1 μM solution was administered. […] The remaining four patients were all on crutches or in wheelchairs. They were on scheduled intermittent self-catheterizations and remained so.

[2] = solubility and stability of RTX solutions; assay type: physicochemical
Description: The molecular weight of RTX is 628.72 for the clinical studies described herein. A 10 μM stock solution, 6.3 μg/mL was prepared by dissolving 6.32 mg of 99.5% pure RTX in 1000 mL absolute ethanol. Solutions for therapeutic use were diluted from the ethanolic stock solution into sterile normal saline (0.9% w/v NaCl) or a saline-ethanol mixture such that the final solution was 10% (v/v) ethanol. Therapeutic efficacy was tested for RTX concentrations of 1 μM, 0.1 μM and 0.05 μM. […] Prior to administration, RTX solutions were sterilized by filtration.
However, the compounds are soluble in ethanol. Pure ethanol cannot be instilled into the bladder because it causes severe pain and irritation of the bladder mucosa. […] The foregoing solution, after filter sterilization, can be directly instilled into the urinary bladder. A typical instillation volume is 100 ml, although it is possible to instill somewhat larger or smaller volumes, as is understood in the art.

[3] = system: patients with MS (detrusor hyperreflexia); test: separate study: RTX instillation in patients with MS; assay type: in vivo, human; parameters: LVA Lost volume after RTX / CAPA Capacity after RTX: unit not given here
[4] = system: vanilloid receptor-mediated release of tachykinins in the rat urinary bladder; settings: rat urinary bladder; cited from earlier work
[5] = system: normal human volunteers and patients with unstable detrusor; settings: 10^−8M (0.01 μM) RTX intravesicular, cited from earlier work
rat urinary bladders = settings: anesthetized rats; repeated perfusions; cited from earlier work
rats = settings: cited from earlier work
bladder afferents = settings: rats; intravesicular 10-100 μmol; cited from earlier work
[6] = four MS patients, one month after treatment

C=C(C)[C@]12C[C@@H](C)[C@@]34O[C@](Cc5ccccc5)(O[C@@H]1[C@@H]3C=C(COC(=O)Cc1ccc(O)c(OC)c1)C[C@]1(O)C(=O)C(C)=C[C@@H]41)O2 [RTX, resiniferatoxin]
side effects ([1]; even at a dose of 1.0 μM RTX): No side effects, particularly no meaningful burning or irritation were observed
Capacity [1, 6]: increased in all patients
urine loss pressure [1, 6]: decreased in all four although minimally in two
stability of stock solution ([2]; absolute ethanol, stored in the dark, preferably refrigerated): stably maintained
solubility in water ([2]; completely aqueous medium, therapeutic dose): insufficiently soluble in water
stability of solutions ([2]; ethanolic stock and dilutions in saline, 10% (v/v) ethanol, 4° C., shielded from light): stable under refrigeration (4° C.) shielded from light
solubility after dilution of ethanolic solution into aqueous medium ([2]; normal saline, not greater than 20% (v/v) ethanol): RTX remains in solution
CAPA Capacity after RTX ([3]; Patient 6, Dose 500 nM, one month after treatment, CAPB before RTX 200): 360
DA Drug after RTX ([3]; Patient 6, Dose 500 nM, one month after treatment, DB before RTX 2): 01
LVA Lost volume after RTX ([3]; Patient 6, Dose 500 nM, one month after treatment, LVB before RTX 60): 10
ULPA Urine loss pressure after RTX ([3]; Patient 6, Dose 500 nM, one month after treatment, ULPB before RTX 96): 40
LVA Lost volume after RTX ([3]; Patient 7 (stress incontinent), Dose 500 nM, one month after treatment, LVB 100): 80*
CAPA Capacity after RTX ([3]; Patient 7, Dose 500 nM, one month after treatment, CAPB 180): 750
DA Drug after RTX ([3]; Patient 7, Dose 500 nM, one month after treatment, DB 2): 1
ULPA Urine loss pressure after RTX ([3]; Patient 7, Dose 500 nM, one month after treatment, ULPB 63): 36
CAPA Capacity after RTX ([3]; Patient 9, Dose 1000 nM, one month after treatment, CAPB 100): 300
DA Drug after RTX ([3]; Patient 9, Dose 1000 nM, one month after treatment, DB 2): 2
LVA Lost volume after RTX ([3]; Patient 9, Dose 1000 nM, one month after treatment, LVB 180): 0
ULPA Urine loss pressure after RTX ([3]; Patient 9, Dose 1000 nM, one month after treatment, ULPB 32): 30
CAPA Capacity after RTX ([3]; Patient 10, Dose 1000 nM, one month after treatment, CAPB 280): 460
DA Drug after RTX ([3]; Patient 10, Dose 1000 nM, one month after treatment, DB 2): 2
LVA Lost volume after RTX ([3]; Patient 10, Dose 1000 nM, one month after treatment, LVB 180): 0
ULPA Urine loss pressure after RTX ([3]; Patient 10, Dose 1000 nM, one month after treatment, ULPB 46): 44
urge and leakage around indwelling catheter ([3]; bedridden MS patient, 100 ml of 1 μM solution, six weeks): no urge and no leakage
Urinary loss [3, 6]: decreased after instillation of RTX in all four patients
desensitization to repeated doses [4]: Desensitization to repeated doses of RTX was observed
potency relative to CAP [4]: 1000 times
sensations upon administration ([5]; human subjects): no micturition reflex or burning upon administration
volume required to elicit first desire to void ([5]; patients having unstable detrusor): Three of five patients having unstable detrusor reported an increased volume
desensitizing effect of bladder perfusion (rat urinary bladders): desensitization was occurring
pain upon intravesical administration (rats): pain induced by intravesical administration of RTX
desensitization of bladder afferents (bladder afferents): long-lasting desensitization of bladder afferents
